Results reported in PMC2861360 (Chemistry & biology, 2008).

Columns and labels:
wt EryAIII M6 = target: T1, wt EryAIII M6 (Saccharopolyspora erythraea, UniProt Q03133); assay: SDS-PAGE autoradiography of self-loading; type: biochemical; conditions: HEPES pH 7.4, RT; covalent; labelled compound; data not shown
T1 sequence (Q03133 1468-2900 limits assumed): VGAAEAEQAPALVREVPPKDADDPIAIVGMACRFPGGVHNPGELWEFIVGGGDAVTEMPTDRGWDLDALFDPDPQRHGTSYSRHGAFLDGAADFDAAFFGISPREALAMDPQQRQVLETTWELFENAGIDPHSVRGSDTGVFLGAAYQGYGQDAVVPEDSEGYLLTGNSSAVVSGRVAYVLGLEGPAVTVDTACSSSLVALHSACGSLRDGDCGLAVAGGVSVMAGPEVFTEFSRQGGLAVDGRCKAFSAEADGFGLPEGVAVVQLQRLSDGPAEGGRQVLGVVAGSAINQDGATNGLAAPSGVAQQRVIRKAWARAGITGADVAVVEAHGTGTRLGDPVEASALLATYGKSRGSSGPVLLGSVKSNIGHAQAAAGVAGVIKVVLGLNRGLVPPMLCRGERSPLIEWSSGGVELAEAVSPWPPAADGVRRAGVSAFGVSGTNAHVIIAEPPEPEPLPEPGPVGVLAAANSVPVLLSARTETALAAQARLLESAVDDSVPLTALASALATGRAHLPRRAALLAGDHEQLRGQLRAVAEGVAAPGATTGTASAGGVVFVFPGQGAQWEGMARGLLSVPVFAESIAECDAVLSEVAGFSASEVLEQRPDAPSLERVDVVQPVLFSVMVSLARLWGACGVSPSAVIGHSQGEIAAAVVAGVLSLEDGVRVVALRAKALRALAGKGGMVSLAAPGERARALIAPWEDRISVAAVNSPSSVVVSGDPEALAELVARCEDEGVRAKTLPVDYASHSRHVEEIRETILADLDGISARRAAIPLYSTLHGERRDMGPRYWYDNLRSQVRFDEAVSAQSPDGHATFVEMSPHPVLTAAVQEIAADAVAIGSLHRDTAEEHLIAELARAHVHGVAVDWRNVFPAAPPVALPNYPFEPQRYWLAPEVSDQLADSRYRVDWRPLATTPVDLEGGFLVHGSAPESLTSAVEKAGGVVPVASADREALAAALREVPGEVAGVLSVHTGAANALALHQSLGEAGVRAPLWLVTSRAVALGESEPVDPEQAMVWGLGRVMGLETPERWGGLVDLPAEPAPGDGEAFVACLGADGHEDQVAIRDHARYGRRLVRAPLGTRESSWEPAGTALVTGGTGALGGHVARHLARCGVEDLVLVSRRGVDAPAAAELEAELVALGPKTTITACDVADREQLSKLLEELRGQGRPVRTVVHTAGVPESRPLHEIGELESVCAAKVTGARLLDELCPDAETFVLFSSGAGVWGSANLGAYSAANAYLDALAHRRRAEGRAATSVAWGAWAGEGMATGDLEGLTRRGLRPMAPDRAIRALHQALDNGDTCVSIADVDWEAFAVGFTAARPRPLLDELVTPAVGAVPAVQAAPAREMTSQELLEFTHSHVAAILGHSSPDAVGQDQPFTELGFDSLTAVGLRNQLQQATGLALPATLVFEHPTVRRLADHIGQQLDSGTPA

wt PikAIV M6 = wt PikAIV M6 (Streptomyces venezuelae, UniProt Q9ZGI2); assay: SDS-PAGE autoradiography of self-loading; type: biochemical; conditions: 0.4 mM; HEPES pH 7.4, RT, 5 min; covalent; labelled compound
wt PikAIV M6, sequence (Q9ZGI2 whole entry): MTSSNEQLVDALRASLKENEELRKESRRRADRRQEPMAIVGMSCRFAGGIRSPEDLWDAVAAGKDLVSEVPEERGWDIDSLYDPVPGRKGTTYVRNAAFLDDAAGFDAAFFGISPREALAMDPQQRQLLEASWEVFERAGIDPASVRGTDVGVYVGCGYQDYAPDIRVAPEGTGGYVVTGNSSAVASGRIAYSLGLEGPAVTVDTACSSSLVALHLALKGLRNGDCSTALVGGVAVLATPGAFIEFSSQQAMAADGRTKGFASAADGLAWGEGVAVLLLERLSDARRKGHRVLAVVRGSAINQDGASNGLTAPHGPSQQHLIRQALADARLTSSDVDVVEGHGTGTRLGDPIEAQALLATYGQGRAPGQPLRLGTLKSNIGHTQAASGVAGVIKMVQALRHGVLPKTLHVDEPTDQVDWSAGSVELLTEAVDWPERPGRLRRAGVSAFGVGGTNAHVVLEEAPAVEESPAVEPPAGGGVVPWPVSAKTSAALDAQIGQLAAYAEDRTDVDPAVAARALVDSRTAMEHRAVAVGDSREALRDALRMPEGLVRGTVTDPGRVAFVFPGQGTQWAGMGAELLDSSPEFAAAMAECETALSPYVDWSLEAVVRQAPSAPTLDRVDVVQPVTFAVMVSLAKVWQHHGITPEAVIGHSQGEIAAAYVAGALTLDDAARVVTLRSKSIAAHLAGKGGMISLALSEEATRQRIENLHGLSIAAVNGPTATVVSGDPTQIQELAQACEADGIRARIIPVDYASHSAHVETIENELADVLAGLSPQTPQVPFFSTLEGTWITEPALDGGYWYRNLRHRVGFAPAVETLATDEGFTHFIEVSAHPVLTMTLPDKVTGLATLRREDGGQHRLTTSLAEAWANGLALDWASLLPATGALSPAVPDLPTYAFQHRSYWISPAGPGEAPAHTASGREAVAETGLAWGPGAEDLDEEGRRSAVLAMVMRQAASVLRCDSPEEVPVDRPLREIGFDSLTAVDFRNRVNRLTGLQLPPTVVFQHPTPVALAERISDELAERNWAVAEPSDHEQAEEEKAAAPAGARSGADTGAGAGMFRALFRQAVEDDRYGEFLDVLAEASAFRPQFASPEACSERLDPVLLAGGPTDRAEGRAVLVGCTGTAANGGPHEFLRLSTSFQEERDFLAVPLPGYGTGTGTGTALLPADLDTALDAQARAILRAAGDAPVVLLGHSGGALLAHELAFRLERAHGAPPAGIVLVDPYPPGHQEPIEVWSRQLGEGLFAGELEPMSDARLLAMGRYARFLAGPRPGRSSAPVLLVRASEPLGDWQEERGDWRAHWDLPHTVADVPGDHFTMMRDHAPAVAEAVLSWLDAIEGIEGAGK

Q: How did the “SDS-PAGE autoradiography of self-loading” value (wt EryAIII M6) turn out when `CC(C(=O)O)C(=O)SCCNC(=O)CCNC(=O)[C@H](O)C(C)(C)COP(=O)(O)OP(=O)(O)OC[C@H]1O[C@@H](n2cnc3c(N)ncnc32)[C@H](O)[C@@H]1OP(=O)(O)O` (some centres unmarked) [methylmalonyl-CoA] was run?
A: Its value is “wt EryAIII M6 was able to self-load methylmalonyl-CoA”.

Q: What about the “SDS-PAGE autoradiography of self-loading” value (wt PikAIV M6) of the same molecule?
A: Its value is “The wt PikAIV M6 was able to self-load and transfer methylmalonyl-CoA, but not malonyl-CoA”.
